Tests used:
Details in all cases: compound at 10 μM
Human δ-opioid (DOP) = molecular target: T1, Human δ-opioid (DOP) (Homo sapiens, UniProt P41143); test: Radioligand binding, human δ-opioid (DOP) membranes, FlashPlate, [3H]-Bremazocine
T1 construct: purchased Perkin Elmer Biosignal
Procedure, shortened: (§1)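 Cloned human receptor membranes were coated onto FlashPlate wells and incubated with radioligand and compound (added from a 0.5 mM DMSO daughter plate) for 1 hour at room temperature in the dark. Scintillation counting gave percent inhibition, with DMSO defining total and reference ligand defining non-specific binding.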

Human κ-Opioid (KOP) = molecular target: T2, Human κ-Opioid (KOP) (Homo sapiens, UniProt P41145); test: Radioligand binding, human κ-opioid (KOP) membranes, filtration, [3H]-Diprenorphine
T2 construct: purchased Perkin Elmer Biosignal
Procedure, shortened: (§2)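 Percent inhibition of radioligand binding measured on recombinant human membranes: NK1 with [125I]-Substance P, KOP with [3H]-Diprenorphine. Incubation 1 h at room temperature, then harvest onto 0.3% PEI-soaked filters, cold Tris-HCl pH 7.4 washes and scintillation counting; non-specific binding from reference ligand wells.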

Human Melanocortin (MC3) = molecular target: T3, Human Melanocortin (MC3) (Homo sapiens, UniProt P41968); test: Radioligand binding, human melanocortin MC3 membranes, FlashPlate, [125I]-NDP-αMSH
T3 construct: purchased Perkin Elmer Biosignal
Procedure, shortened: as §1

Human Melanocortin (MC4) = molecular target: T4, Human Melanocortin (MC4) (Homo sapiens, UniProt P32245); test: Radioligand binding, human melanocortin MC4 membranes, FlashPlate, [125I]-NDP-αMSH
T4 construct: purchased Perkin Elmer Biosignal
Procedure, shortened: as §1

Human melanocortin (MC5) = molecular target: T5, Human melanocortin (MC5) (Homo sapiens, UniProt P33032); test: Radioligand binding, human melanocortin MC5 membranes, FlashPlate, [125I]-NDP-αMSH
T5 construct: purchased Perkin Elmer Biosignal
Procedure, shortened: as §1

[1] = molecular target: T6, Human melanin-concentrating hormone (MCH1) (Homo sapiens, UniProt Q99705); test: Radioligand binding, human melanin-concentrating hormone MCH1 membranes, FlashPlate, [125I]-S36057
T6 construct: purchased Perkin Elmer Biosignal
Procedure, shortened: as §1

Human μ-opioid (MOP) = molecular target: T7, Human μ-opioid (MOP) (Homo sapiens, UniProt P35372); test: Radioligand binding, human μ-opioid (MOP) membranes, FlashPlate, [3H]-Naloxone
T7 construct: purchased Perkin Elmer Biosignal
Procedure, shortened: as §1

Human neurokinin (NK1) = molecular target: T8, Human neurokinin (NK1) (Homo sapiens, UniProt P25103); test: Radioligand binding, human neurokinin NK1 membranes, filtration, [125I]-Substance P
T8 construct: purchased Perkin Elmer Biosignal
Procedure, shortened: as §2

[2] = molecular target: T9, Human neuropeptide Y (NPY-Y1) (Homo sapiens, UniProt P25929); test: Radioligand binding, human neuropeptide Y NPY-Y1 membranes, FlashPlate, [125I]-PYY
T9 construct: purchased Perkin Elmer Biosignal
T9 sequence (P25929 1-384): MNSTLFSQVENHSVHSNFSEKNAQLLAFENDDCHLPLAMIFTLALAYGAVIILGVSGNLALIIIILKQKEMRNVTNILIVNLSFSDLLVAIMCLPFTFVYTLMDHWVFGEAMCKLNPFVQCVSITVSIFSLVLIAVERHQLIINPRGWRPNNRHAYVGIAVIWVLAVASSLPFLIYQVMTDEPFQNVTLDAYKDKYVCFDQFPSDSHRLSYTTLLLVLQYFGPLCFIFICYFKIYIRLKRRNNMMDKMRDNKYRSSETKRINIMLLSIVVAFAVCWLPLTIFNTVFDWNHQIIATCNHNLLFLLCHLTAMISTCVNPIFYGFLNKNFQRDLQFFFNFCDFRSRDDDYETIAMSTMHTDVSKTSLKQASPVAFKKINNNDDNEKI
Procedure, shortened: as §1

Human opioid (ORL1) = molecular target: T10, Human opioid (ORL1) (Homo sapiens, UniProt P41146); test: Radioligand binding, human opioid ORL1 membranes, FlashPlate, [125I]-Nociceptin
T10 construct: purchased Perkin Elmer Biosignal
Procedure, shortened: as §1

Mouse urotensin (mUR2) = molecular target: T11, Mouse urotensin (mUR2) (Mus musculus, UniProt Q8VIH9); test: Radioligand binding, mouse urotensin mUR2 membranes, FlashPlate, [125I]-Urotensin II
T11 construct: purchased Perkin Elmer Biosignal
T11 sequence (Q8VIH9 1-385): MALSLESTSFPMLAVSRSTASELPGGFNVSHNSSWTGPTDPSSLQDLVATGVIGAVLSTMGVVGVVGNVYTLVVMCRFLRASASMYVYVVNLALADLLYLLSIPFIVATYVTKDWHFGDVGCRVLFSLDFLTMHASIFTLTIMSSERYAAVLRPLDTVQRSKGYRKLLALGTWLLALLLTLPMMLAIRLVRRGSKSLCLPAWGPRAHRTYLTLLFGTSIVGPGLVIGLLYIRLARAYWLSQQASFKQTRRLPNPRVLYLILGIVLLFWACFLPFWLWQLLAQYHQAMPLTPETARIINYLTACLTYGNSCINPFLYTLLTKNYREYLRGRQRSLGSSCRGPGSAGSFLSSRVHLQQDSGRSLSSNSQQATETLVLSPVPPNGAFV
Procedure, shortened: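 Cloned mouse urotensin (mUR2) receptor membranes from Perkin Elmer Biosignal were immobilized in FlashPlate microplates using a proprietary coating. Each well got 19.5 μl buffer, then 0.5 μl of DMSO, reference ligand, or compound. Adding 5 μl of [125I]-Urotensin II, diluted to 5× final concentration in binding buffer, started binding. Plates were sealed with TopSeal-A and incubated 1 hour at room temperature in the dark. Wells were counted for 30 seconds each on a TopCount after a 60-second delay, and percentage inhibition was calculated.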

T2 sequence (P41145 whole entry): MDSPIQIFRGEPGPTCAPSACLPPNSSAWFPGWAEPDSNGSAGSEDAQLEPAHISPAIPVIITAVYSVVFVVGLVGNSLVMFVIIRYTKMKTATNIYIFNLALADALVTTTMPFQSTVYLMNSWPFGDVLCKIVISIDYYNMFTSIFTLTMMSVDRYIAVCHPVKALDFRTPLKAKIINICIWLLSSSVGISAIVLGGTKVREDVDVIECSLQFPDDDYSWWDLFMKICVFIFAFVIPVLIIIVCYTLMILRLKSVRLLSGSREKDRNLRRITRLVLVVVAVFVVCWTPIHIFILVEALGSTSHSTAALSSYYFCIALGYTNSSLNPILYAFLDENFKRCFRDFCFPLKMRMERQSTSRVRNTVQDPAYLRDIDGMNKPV
T10 sequence (P41146 whole entry): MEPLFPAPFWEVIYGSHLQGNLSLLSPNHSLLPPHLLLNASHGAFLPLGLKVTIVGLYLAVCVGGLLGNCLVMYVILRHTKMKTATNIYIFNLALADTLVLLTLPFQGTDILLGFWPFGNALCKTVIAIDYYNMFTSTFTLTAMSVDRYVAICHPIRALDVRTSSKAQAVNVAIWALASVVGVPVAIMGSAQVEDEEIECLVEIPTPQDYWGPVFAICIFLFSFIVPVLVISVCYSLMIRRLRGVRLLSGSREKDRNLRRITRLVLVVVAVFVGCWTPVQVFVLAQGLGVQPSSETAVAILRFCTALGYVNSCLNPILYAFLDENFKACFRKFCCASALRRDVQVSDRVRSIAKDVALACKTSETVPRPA
T7 sequence (P35372 whole entry): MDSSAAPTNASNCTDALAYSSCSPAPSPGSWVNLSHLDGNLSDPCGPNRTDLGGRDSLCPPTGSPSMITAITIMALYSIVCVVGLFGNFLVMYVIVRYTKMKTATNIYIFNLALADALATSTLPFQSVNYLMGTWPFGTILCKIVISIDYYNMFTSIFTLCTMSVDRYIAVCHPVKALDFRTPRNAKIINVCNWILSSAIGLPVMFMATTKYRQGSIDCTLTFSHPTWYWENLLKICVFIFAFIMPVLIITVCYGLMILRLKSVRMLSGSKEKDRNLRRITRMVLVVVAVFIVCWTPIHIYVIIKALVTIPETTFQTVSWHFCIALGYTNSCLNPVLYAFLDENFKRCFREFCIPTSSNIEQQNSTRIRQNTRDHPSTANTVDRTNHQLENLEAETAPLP
T4 sequence (P32245 whole entry): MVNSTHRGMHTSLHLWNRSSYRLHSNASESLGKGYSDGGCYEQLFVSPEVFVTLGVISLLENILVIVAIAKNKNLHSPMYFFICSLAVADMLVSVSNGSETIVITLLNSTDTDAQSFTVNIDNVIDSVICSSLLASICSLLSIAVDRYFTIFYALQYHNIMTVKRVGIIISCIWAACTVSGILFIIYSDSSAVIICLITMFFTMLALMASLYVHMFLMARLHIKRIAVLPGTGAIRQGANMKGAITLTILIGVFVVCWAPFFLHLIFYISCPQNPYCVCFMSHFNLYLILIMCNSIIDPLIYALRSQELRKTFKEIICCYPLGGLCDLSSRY
T8 sequence (P25103 whole entry): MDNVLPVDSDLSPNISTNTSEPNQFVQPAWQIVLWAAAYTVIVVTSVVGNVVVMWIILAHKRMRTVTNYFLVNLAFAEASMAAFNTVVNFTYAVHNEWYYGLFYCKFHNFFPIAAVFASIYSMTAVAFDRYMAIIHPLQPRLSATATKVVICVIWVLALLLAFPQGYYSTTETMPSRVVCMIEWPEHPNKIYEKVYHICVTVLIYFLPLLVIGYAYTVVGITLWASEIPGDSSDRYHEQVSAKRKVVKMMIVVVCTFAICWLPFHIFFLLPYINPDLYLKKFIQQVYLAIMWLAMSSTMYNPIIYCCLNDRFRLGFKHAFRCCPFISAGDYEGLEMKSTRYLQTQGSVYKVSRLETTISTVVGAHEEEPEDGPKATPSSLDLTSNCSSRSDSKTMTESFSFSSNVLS
T3 sequence (P41968 whole entry): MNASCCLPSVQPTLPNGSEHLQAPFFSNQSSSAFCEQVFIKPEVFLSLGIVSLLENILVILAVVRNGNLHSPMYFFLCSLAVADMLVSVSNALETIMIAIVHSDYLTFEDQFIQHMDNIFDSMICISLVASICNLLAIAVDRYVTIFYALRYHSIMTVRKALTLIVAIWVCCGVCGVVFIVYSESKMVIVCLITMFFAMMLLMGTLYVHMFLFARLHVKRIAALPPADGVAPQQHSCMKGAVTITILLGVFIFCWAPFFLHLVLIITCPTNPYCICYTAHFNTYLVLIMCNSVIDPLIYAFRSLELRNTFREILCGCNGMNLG
T5 sequence (P33032 whole entry): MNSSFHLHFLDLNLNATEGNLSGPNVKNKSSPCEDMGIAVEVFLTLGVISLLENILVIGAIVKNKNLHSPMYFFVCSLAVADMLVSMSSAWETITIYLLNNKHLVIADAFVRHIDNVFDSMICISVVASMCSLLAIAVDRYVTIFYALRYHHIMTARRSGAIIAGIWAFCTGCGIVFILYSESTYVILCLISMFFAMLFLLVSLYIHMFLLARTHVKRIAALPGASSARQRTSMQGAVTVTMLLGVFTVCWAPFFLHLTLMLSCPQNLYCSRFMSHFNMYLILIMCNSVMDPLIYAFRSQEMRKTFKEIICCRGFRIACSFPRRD
T6 sequence (Q99705 whole entry): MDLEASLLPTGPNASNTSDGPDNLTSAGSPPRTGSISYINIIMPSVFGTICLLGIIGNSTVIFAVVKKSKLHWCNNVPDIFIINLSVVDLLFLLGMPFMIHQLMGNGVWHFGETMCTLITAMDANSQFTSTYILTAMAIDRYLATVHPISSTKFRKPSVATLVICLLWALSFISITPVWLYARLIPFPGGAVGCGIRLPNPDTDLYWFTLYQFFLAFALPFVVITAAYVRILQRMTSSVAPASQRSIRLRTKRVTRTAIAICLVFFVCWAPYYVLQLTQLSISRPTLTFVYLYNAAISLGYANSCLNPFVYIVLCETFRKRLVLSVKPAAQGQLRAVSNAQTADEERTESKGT
T1 sequence (P41143 whole entry): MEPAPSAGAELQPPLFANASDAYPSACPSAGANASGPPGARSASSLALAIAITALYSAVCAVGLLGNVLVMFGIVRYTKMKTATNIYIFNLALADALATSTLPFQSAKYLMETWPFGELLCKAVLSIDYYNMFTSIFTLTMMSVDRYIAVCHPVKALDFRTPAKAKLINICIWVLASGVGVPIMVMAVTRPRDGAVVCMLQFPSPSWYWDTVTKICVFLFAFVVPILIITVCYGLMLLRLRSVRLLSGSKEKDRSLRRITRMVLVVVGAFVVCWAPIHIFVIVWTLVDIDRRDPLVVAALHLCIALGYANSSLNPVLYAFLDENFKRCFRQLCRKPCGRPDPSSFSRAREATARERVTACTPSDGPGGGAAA

NCCCC(=O)NC1C(OCc2ccc(Cl)cc2)OC(COCc2ccccc2)C(O)C1OCc1ccc2ccccc2c1 (single isomer, unassigned) [compound 497]
A1: inhibition of radioligand binding, human δ-opioid (DOP) (Human δ-opioid (DOP); [3H]-Bremazocine): − (“−” indicates less than 50% inhibition at 10 μM)
A2: inhibition of radioligand binding, human κ-opioid (KOP) (Human κ-Opioid (KOP); [3H]-Diprenorphine): − (“−” indicates less than 50% inhibition at 10 μM)
A3: inhibition of radioligand binding, human melanocortin (MC3) (Human Melanocortin (MC3); [125I]-NDP-αMSH): − (“−” indicates less than 50% inhibition at 10 μM)
A4: inhibition of radioligand binding, human melanocortin (MC4) (Human Melanocortin (MC4); [125I]-NDP-αMSH, 10 µM): − (“−” indicates less than 50% inhibition at 10 μM)
A5: inhibition of radioligand binding, human melanocortin (MC5) (Human melanocortin (MC5); [125I]-NDP-αMSH): + (“+” indicates greater than 50% inhibition at 10 μM)
A6: inhibition of radioligand binding, human melanin-concentrating hormone (MCH1) ([1]; [125I]-S36057): − (“−” indicates less than 50% inhibition at 10 μM)
A7: inhibition of radioligand binding, human μ-opioid (MOP) (Human μ-opioid (MOP); [3H]-Naloxone): − (“−” indicates less than 50% inhibition at 10 μM)
A8: inhibition of radioligand binding, human neurokinin (NK1) (Human neurokinin (NK1); [125I]-Substance P): + (“+” indicates greater than 50% inhibition at 10 μM)
A9: inhibition of radioligand binding, human neuropeptide Y (NPY-Y1) ([2]; [125I]-PYY): − (“−” indicates less than 50% inhibition at 10 μM)
A10: inhibition of radioligand binding, human opioid (ORL1) (Human opioid (ORL1); [125I]-Nociceptin, 10 µM): − (“−” indicates less than 50% inhibition at 10 μM)
A11: inhibition of radioligand binding, mouse urotensin (mUR2) (Mouse urotensin (mUR2); [125I]-Urotensin II): − (“−” indicates less than 50% inhibition at 10 μM)

CSC1O[C@H](COCc2ccc3ccccc3c2)[C@@H](O)[C@@H](OCc2ccc(-c3ccccc3)cc2)[C@H]1NC(=O)CCCN (stereo partly shown) [compound 299]
A1: inhibition of radioligand binding, human δ-opioid (DOP) (Human δ-opioid (DOP); [3H]-Bremazocine): − (“−” indicates less than 50% inhibition at 10 μM)
A2: inhibition of radioligand binding, human κ-opioid (KOP) (Human κ-Opioid (KOP); [3H]-Diprenorphine): − (“−” indicates less than 50% inhibition at 10 μM)
A3: inhibition of radioligand binding, human melanocortin (MC3) (Human Melanocortin (MC3); [125I]-NDP-αMSH): − (“−” indicates less than 50% inhibition at 10 μM)
A4: inhibition of radioligand binding, human melanocortin (MC4) (Human Melanocortin (MC4); [125I]-NDP-αMSH): + (“+” indicates greater than 50% inhibition at 10 μM)
A5: inhibition of radioligand binding, human melanocortin (MC5) (Human melanocortin (MC5); [125I]-NDP-αMSH): − (“−” indicates less than 50% inhibition at 10 μM)
A6: inhibition of radioligand binding, human melanin-concentrating hormone (MCH1) ([1]; [125I]-S36057): − (“−” indicates less than 50% inhibition at 10 μM)
A7: inhibition of radioligand binding, human μ-opioid (MOP) (Human μ-opioid (MOP); [3H]-Naloxone): − (“−” indicates less than 50% inhibition at 10 μM)
A8: inhibition of radioligand binding, human neurokinin (NK1) (Human neurokinin (NK1); [125I]-Substance P): + (“+” indicates greater than 50% inhibition at 10 μM)
A9: inhibition of radioligand binding, human neuropeptide Y (NPY-Y1) ([2]; [125I]-PYY): − (“−” indicates less than 50% inhibition at 10 μM)
A10: inhibition of radioligand binding, human opioid (ORL1) (Human opioid (ORL1); [125I]-Nociceptin): − (“−” indicates less than 50% inhibition at 10 μM)
A11: inhibition of radioligand binding, mouse urotensin (mUR2) (Mouse urotensin (mUR2); [125I]-Urotensin II): − (“−” indicates less than 50% inhibition at 10 μM)

CO[C@H]1[C@H](O)[C@@H](COCc2ccc(-c3ccccc3)cc2)OC(OCc2ccc(Cl)cc2)[C@@H]1NC(=O)CCNC(=N)N (stereo partly shown) [compound 94]
A1 radioligand binding, percentage inhibition (Human δ-opioid (DOP); [3H]-Bremazocine): − (“−” indicates less than 50% inhibition at 10 μM)
A2 radioligand binding, percentage inhibition (Human κ-Opioid (KOP); [3H]-Diprenorphine): − (“−” indicates less than 50% inhibition at 10 μM)
A3 radioligand binding, percentage inhibition (Human Melanocortin (MC3); [125I]-NDP-αMSH): + (“+” indicates greater than 50% inhibition at 10 μM)
A4 radioligand binding, percentage inhibition (Human Melanocortin (MC4); [125I]-NDP-αMSH): + (“+” indicates greater than 50% inhibition at 10 μM)
A5 radioligand binding, percentage inhibition (Human melanocortin (MC5); [125I]-NDP-αMSH): + (“+” indicates greater than 50% inhibition at 10 μM)
A6 radioligand binding, percentage inhibition ([1]; [125I]-S36057): + (“+” indicates greater than 50% inhibition at 10 μM)
A7 radioligand binding, percentage inhibition (Human μ-opioid (MOP); [3H]-Naloxone): − (“−” indicates less than 50% inhibition at 10 μM)
A8 radioligand binding, percentage inhibition (Human neurokinin (NK1); [125I]-Substance P): + (“+” indicates greater than 50% inhibition at 10 μM)
A9 radioligand binding, percentage inhibition ([2]; [125I]-PYY): + (“+” indicates greater than 50% inhibition at 10 μM)
A10 radioligand binding, percentage inhibition (Human opioid (ORL1); [125I]-Nociceptin): + (“+” indicates greater than 50% inhibition at 10 μM)
A11 radioligand binding, percentage inhibition (Mouse urotensin (mUR2); [125I]-Urotensin II): − (“−” indicates less than 50% inhibition at 10 μM)

COC[C@H]1OC(OCc2ccc(-c3ccccc3)cc2)[C@H](NC(=O)CCCN)[C@@H](OCc2ccc(-c3ccccc3)cc2)[C@@H]1O (stereo partly shown) [compound 2]
A1 radioligand binding inhibition (Human δ-opioid (DOP); human δ-opioid (DOP) membranes): − (“−” indicates less than 50% inhibition at 10 μM)
A2 radioligand binding inhibition (Human κ-Opioid (KOP); human κ-opioid (KOP) membranes): − (“−” indicates less than 50% inhibition at 10 μM)
A3 radioligand binding inhibition (Human Melanocortin (MC3); human melanocortin MC3 membranes): − (“−” indicates less than 50% inhibition at 10 μM)
A4 radioligand binding inhibition (Human Melanocortin (MC4); human melanocortin MC4 membranes): + (“+” indicates greater than 50% inhibition at 10 μM)
A5 radioligand binding inhibition (Human melanocortin (MC5); human melanocortin MC5 membranes): + (“+” indicates greater than 50% inhibition at 10 μM)
A6 radioligand binding inhibition ([1]; human MCH1 membranes): + (“+” indicates greater than 50% inhibition at 10 μM)
A7 radioligand binding inhibition (Human μ-opioid (MOP); human μ-opioid (MOP) membranes): − (“−” indicates less than 50% inhibition at 10 μM)
A8 radioligand binding inhibition (Human neurokinin (NK1); human neurokinin NK1 membranes): + (“+” indicates greater than 50% inhibition at 10 μM)
A9 radioligand binding inhibition ([2]; human NPY-Y1 membranes): − (“−” indicates less than 50% inhibition at 10 μM)
A10 radioligand binding inhibition (Human opioid (ORL1); human ORL1 membranes): − (“−” indicates less than 50% inhibition at 10 μM)
A11 radioligand binding inhibition (Mouse urotensin (mUR2); mouse urotensin mUR2 membranes): − (“−” indicates less than 50% inhibition at 10 μM)

N=C(N)NCC(=O)NC1C(OCc2ccc(-c3ccccc3)cc2)OC(COCc2ccc(Cl)cc2)C(O)C1OCc1ccc(-c2ccccc2)cc1 (stereo not shown) [compound 407]
A1: inhibition of radioligand binding (Human δ-opioid (DOP); [3H]-Bremazocine, human DOP membranes): − (“−” indicates less than 50% inhibition at 10 μM)
A2: inhibition of radioligand binding (Human κ-Opioid (KOP); [3H]-Diprenorphine, human KOP membranes): − (“−” indicates less than 50% inhibition at 10 μM)
A3: inhibition of radioligand binding (Human Melanocortin (MC3); [125I]-NDP-αMSH, human MC3 membranes): + (“+” indicates greater than 50% inhibition at 10 μM)
A4: inhibition of radioligand binding (Human Melanocortin (MC4); [125I]-NDP-αMSH, human MC4 membranes): + (“+” indicates greater than 50% inhibition at 10 μM)
A5: inhibition of radioligand binding (Human melanocortin (MC5); [125I]-NDP-αMSH, human MC5 membranes): + (“+” indicates greater than 50% inhibition at 10 μM)
A6: inhibition of radioligand binding ([1]; [125I]-S36057, human MCH1 membranes): + (“+” indicates greater than 50% inhibition at 10 μM)
A7: inhibition of radioligand binding (Human μ-opioid (MOP); [3H]-Naloxone, human MOP membranes): − (“−” indicates less than 50% inhibition at 10 μM)
A8: inhibition of radioligand binding (Human neurokinin (NK1); [125I]-Substance P, human NK1 membranes): + (“+” indicates greater than 50% inhibition at 10 μM)
A9: inhibition of radioligand binding ([2]; [125I]-PYY, human NPY-Y1 membranes): − (“−” indicates less than 50% inhibition at 10 μM)
A10: inhibition of radioligand binding (Human opioid (ORL1); [125I]-Nociceptin, human ORL1 membranes): + (“+” indicates greater than 50% inhibition at 10 μM)
A11: inhibition of radioligand binding (Mouse urotensin (mUR2); [125I]-Urotensin II, mouse mUR2 membranes): − (“−” indicates less than 50% inhibition at 10 μM)

— patent publication US20080009418A1, “Selective Inhibitors” (Alchemia LTD., priority 2004, published 2008)
